Data published in patent publication US9833497B2, “Human originated EGF domain proteins and use of the same” (CHENGDU SOURCEBIO LIMITED-LIABILITY COMPANY, priority 2013, dated 2017).

Columns and labels:
Format in all cases: cell-based
Moraxella catarrhalis = assay: MIC against Gram-negative bacteria: Moraxella catarrhalis; settings: 5×10^5 CFU/mL
Procedure, shortened: (§1)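 Two-fold serial dilutions of each purified human EGF domain protein, three replicate wells per level, were combined with bacteria at a final 5×10^5 CFU/mL in LB. Cultures were shaken at 175 rpm, 37° C. The MIC was taken as the minimum concentration preventing growth.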

E. coli BL21 = assay: MIC against Gram-negative bacteria: E. coli BL21; settings: 5×10^5 CFU/mL
Procedure, shortened: as §1

Proteus mirabilis = assay: MIC against Gram-negative bacteria: Proteus mirabilis; settings: 5×10^5 CFU/mL
Procedure, shortened: as §1

Aeromonas hydrophila = assay: MIC against Gram-negative bacteria: Aeromonas hydrophila; settings: 5×10^5 CFU/mL
Procedure, shortened: as §1

Proteus vulgaris = assay: MIC against Gram-negative bacteria: Proteus vulgaris; settings: 5×10^5 CFU/mL
Procedure, shortened: as §1

Klebsiella pneumonia = assay: MIC against Gram-negative bacteria: Klebsiella pneumonia; settings: 5×10^5 CFU/mL
Procedure, shortened: as §1

Enterobacter cloacae = assay: MIC against Gram-negative bacteria: Enterobacter cloacae; settings: 5×10^5 CFU/mL
Procedure, shortened: as §1

Citrobacter diversus = assay: MIC against Gram-negative bacteria: Citrobacter diversus; settings: 5×10^5 CFU/mL
Procedure, shortened: as §1

Pseudomonas aeruginosa = assay: MIC against Gram-negative bacteria: Pseudomonas aeruginosa; settings: 5×10^5 CFU/mL
Procedure, shortened: as §1

Serratia marcescens = assay: MIC against Gram-negative bacteria: Serratia marcescens; settings: 5×10^5 CFU/mL
Procedure, shortened: as §1

E. coli DH5α = assay: Antibacterial activity: MIC and growth curve against E. coli DH5α in 96-well plate; settings: minimal inhibitory concentration against E. coli DH5α; 96-well plate, 5×10^5 CFU/mL, 37° C., judged after 8 h
Procedure, shortened: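 MIC taken as lowest protein level with no bacterial growth, tracked by A600 every 30 min during 37 °C, 175 rpm culture. Two-fold protein series 50-12.5 μg/mL final, triplicate wells, against 5×10^5 CFU/mL of LB-washed mid-log cells.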

[1] = E. coli BL21, 10 h cultivation at 37° C.
[2] = 10 h cultivation at 37° C., two-fold serial dilution

PRT227 (KGNNCRDSTLCPAYATCTNTVDSYYCACKQGFLSSNGQNHFKDPGVRCK; listed as Homo sapiens)
50 µg/mL: MIC (μg/mL) C. diversus (Citrobacter diversus; 10 h cultivation at 37° C.) | MIC (μg/mL) S. marcescens (Serratia marcescens; 10 h cultivation at 37° C.)
25 µg/mL: MIC (μg/mL) M. catarrhalis (Moraxella catarrhalis; 10 h cultivation at 37° C.) | MIC (μg/mL) P. vulgaris (Proteus vulgaris; 10 h cultivation at 37° C.)
12.5 µg/mL: MIC (μg/mL) E. coli BL21 (E. coli BL21; [1]) | MIC (μg/mL) P. mirabilis (Proteus mirabilis; 10 h cultivation at 37° C.) | MIC (μg/mL) A. hydrophila (Aeromonas hydrophila; 10 h cultivation at 37° C.) | MIC (μg/mL) K. pneumonia (Klebsiella pneumonia; 10 h cultivation at 37° C.) | MIC (μg/mL) E. cloacae (Enterobacter cloacae; 10 h cultivation at 37° C.) | MIC (μg/mL) P. aeruginosa (Pseudomonas aeruginosa; 10 h cultivation at 37° C.) | MIC (E. coli DH5α)

PRT827 (HLECSCHNNSTCEPATGTCRCGPGFYGQACE; listed as Homo sapiens)
12.5 µg/mL: MIC (μg/mL) P. vulgaris (Proteus vulgaris; 10 h cultivation at 37° C.) | MIC (μg/mL) K. pneumonia (Klebsiella pneumonia; 10 h cultivation at 37° C.) | MIC (μg/mL) C. diversus (Citrobacter diversus; 10 h cultivation at 37° C.) | MIC (μg/mL) P. aeruginosa (Pseudomonas aeruginosa; 10 h cultivation at 37° C.) | MIC (E. coli DH5α)
25 µg/mL: MIC (μg/mL) M. catarrhalis (Moraxella catarrhalis; 10 h cultivation at 37° C.) | MIC (μg/mL) E. coli BL21 (E. coli BL21; [1]) | MIC (μg/mL) A. hydrophila (Aeromonas hydrophila; 10 h cultivation at 37° C.)
50 µg/mL: MIC (μg/mL) P. mirabilis (Proteus mirabilis; 10 h cultivation at 37° C.) | MIC (μg/mL) E. cloacae (Enterobacter cloacae; 10 h cultivation at 37° C.) | MIC (μg/mL) S. marcescens (Serratia marcescens; 10 h cultivation at 37° C.)

PRT560 (GSCHPAGLAPVDPALPEAQVPCMCRAHVEGPSCDRCKPGFWGLSPSNPEGCTR; listed as Homo sapiens)
12.5 µg/mL: MIC (E. coli DH5α)
25 µg/mL: MIC against M. catarrhalis (Moraxella catarrhalis; 96-well plate, 37° C., 10 h) | MIC against E. coli BL21 (E. coli BL21; 96-well plate, 37° C., 10 h) | MIC against A. hydrophila (Aeromonas hydrophila; 96-well plate, 37° C., 10 h) | MIC against K. pneumonia (Klebsiella pneumonia; 96-well plate, 37° C., 10 h)
50 µg/mL: MIC against P. mirabilis (Proteus mirabilis; 96-well plate, 37° C., 10 h) | MIC against P. vulgaris (Proteus vulgaris; 96-well plate, 37° C., 10 h) | MIC against E. cloacae (Enterobacter cloacae; 96-well plate, 37° C., 10 h) | MIC against C. diversus (Citrobacter diversus; 96-well plate, 37° C., 10 h) | MIC against P. aeruginosa (Pseudomonas aeruginosa; 96-well plate, 37° C., 10 h) | MIC against S. marcescens (Serratia marcescens; 96-well plate, 37° C., 10 h)

PRT1067 (KLTSCATNASICGDEARCVRTEKAAYCACRSGFHTVPGQPGCQ; listed as Homo sapiens)
12.5 µg/mL: MIC M. catarrhalis (Moraxella catarrhalis; [2]) | MIC K. pneumonia (Klebsiella pneumonia; [2])
25 µg/mL: MIC P. mirabilis (Proteus mirabilis; [2]) | MIC A. hydrophila (Aeromonas hydrophila; [2]) | MIC E. cloacae (Enterobacter cloacae; [2]) | MIC C. diversus (Citrobacter diversus; [2]) | MIC P. aeruginosa (Pseudomonas aeruginosa; [2]) | MIC S. marcescens (Serratia marcescens; [2]) | MIC (E. coli DH5α)
50 µg/mL: MIC E. coli BL21 (E. coli BL21; [2]) | MIC P. vulgaris (Proteus vulgaris; [2])

PRT1383 (GTRSCPWDCGEGGRCVDGRCVCWPGYTGEDC; listed as Homo sapiens)
50 µg/mL: MIC against P. mirabilis (Proteus mirabilis; Proteus mirabilis, 10 h cultivation at 37° C.) | MIC against A. hydrophila (Aeromonas hydrophila; Aeromonas hydrophila, 10 h cultivation at 37° C.) | MIC against S. marcescens (Serratia marcescens; Serratia marcescens, 10 h cultivation at 37° C.)
25 µg/mL: MIC against K. pneumonia (Klebsiella pneumonia; Klebsiella pneumonia, 10 h cultivation at 37° C.) | MIC against C. diversus (Citrobacter diversus; Citrobacter diversus, 10 h cultivation at 37° C.)
12.5 µg/mL: MIC against M. catarrhalis (Moraxella catarrhalis; Moraxella catarrhalis, 10 h cultivation at 37° C.) | MIC against E. coli BL21 (E. coli BL21; [1]) | MIC against P. vulgaris (Proteus vulgaris; Proteus vulgaris, 10 h cultivation at 37° C.) | MIC against E. cloacae (Enterobacter cloacae; Enterobacter cloacae, 10 h cultivation at 37° C.) | MIC against P. aeruginosa (Pseudomonas aeruginosa; Pseudomonas aeruginosa, 10 h cultivation at 37° C.) | MIC (E. coli DH5α)

PRT688 (DVDECQLFRDQVCKSGVCVNTAPGYSCYCSNGYYYHTQRLECI; listed as Homo sapiens)
50 µg/mL: MIC P. mirabilis (Proteus mirabilis; 96-well plate, 37° C., 10 h) | MIC K. pneumonia (Klebsiella pneumonia; 96-well plate, 37° C., 10 h) | MIC C. diversus (Citrobacter diversus; 96-well plate, 37° C., 10 h) | MIC S. marcescens (Serratia marcescens; 96-well plate, 37° C., 10 h)
25 µg/mL: MIC A. hydrophila (Aeromonas hydrophila; 96-well plate, 37° C., 10 h) | MIC P. aeruginosa (Pseudomonas aeruginosa; 96-well plate, 37° C., 10 h) | MIC (E. coli DH5α)
100 µg/mL: MIC P. vulgaris (Proteus vulgaris; 96-well plate, 37° C., 10 h)
12.5 µg/mL: MIC M. catarrhalis (Moraxella catarrhalis; 96-well plate, 37° C., 10 h) | MIC E. coli BL21 (E. coli BL21; 96-well plate, 37° C., 10 h) | MIC E. cloacae (Enterobacter cloacae; 96-well plate, 37° C., 10 h)

PRT853 (DLNECGLKPRPCKHRCMNTYGSYKCYCLNGYMLMPDGSCS; listed as Homo sapiens)
25 µg/mL: MIC (μg/mL) P. mirabilis (Proteus mirabilis; 10 h cultivation at 37° C.) | MIC (μg/mL) P. vulgaris (Proteus vulgaris; 10 h cultivation at 37° C.) | MIC (μg/mL) E. cloacae (Enterobacter cloacae; 10 h cultivation at 37° C.) | MIC (μg/mL) C. diversus (Citrobacter diversus; 10 h cultivation at 37° C.) | MIC (μg/mL) P. aeruginosa (Pseudomonas aeruginosa; 10 h cultivation at 37° C.) | MIC (E. coli DH5α)
12.5 µg/mL: MIC (μg/mL) E. coli BL21 (E. coli BL21; [1]) | MIC (μg/mL) A. hydrophila (Aeromonas hydrophila; 10 h cultivation at 37° C.) | MIC (μg/mL) S. marcescens (Serratia marcescens; 10 h cultivation at 37° C.)
50 µg/mL: MIC (μg/mL) M. catarrhalis (Moraxella catarrhalis; 10 h cultivation at 37° C.) | MIC (μg/mL) K. pneumonia (Klebsiella pneumonia; 10 h cultivation at 37° C.)
